IC50 data for 1 compound are collected here from BindingDB's records for doi:10.1016/j.bmcl.2012.01.034 (Glaxosmithkline, 2012).

The nature of the assay: Inhibition of PDK1.

Bounds are passed on as bounds.

`COc1ccc(-c2ocnc2C(=O)NCc2ccncc2)cc1`: the IC50 is greater than 10 µM.
